Measurements reported in paper PMC6320956, “O-Aminoalkyl-O-Trimethyl-2,3-Dehydrosilybins: Synthesis and In Vitro Effects Towards Prostate Cancer Cells” (Molecules, 2018).

Key:
Type in all cases: cell-based, human
PC-3 cells = assay: WST-1 cell proliferation assay, PC-3; details: for IC50: Homo sapiens, PC-3, 72 h, WST-1, three days of exposure, mean ± SD, n = 3; for IC50 (Silibinin)/IC50(Derivative) PC-3: fold potency relative to silibinin
Protocol: (§1) The in vitro antiproliferative activities of six 7-O-substituted and 26 3-O-substituted silybin derivatives were evaluated using the WST-1 cell proliferation assay, according to the procedure as described in the Experimental Section in both androgen-sensitive (LNCaP) and androgen-insensitive (PC-3 and DU145) human prostate cancer cell lines. Silibinin and docetaxel were used as a positive control for comparison in the parallel experiments and the IC50 values calculated from the dose-response curves are summarized in Table 1. […] A three-carbon linker in 11 and 29, as well as a five-carbon linker in 31, 37 and 40, are beneficial to the potency.
(§2) All cell lines were initially purchased from American Type Culture Collection (ATCC^TM) (Manassas, VA, USA). The PC-3 and LNCaP prostate cancer cell lines were routinely cultured in RPIM-1640 medium supplemented with 10% FBS and 1% penicillin/streptomycin. The DU145 prostate cancer cells were routinely cultured in Eagle’s Minimum Essential Medium (EMEM) supplemented with 10% FBS and 1% penicillin/streptomycin. Cultures were maintained in a high humidity environment supplemented with 5% carbon dioxide at a temperature of 37 °C.
(§3) PC-3, DU145, or LNCaP cells were plated in 96-well plates at a density of 3,200 per well in 200 µL of culture medium. The cells were then separately treated with silibinin, or synthesized silibinin derivatives, at five different doses for three days, while equal treatment volumes of DMSO (0.25%) were used as the vehicle control. The cells were cultured in a CO2 incubator at 37 °C for three days. A total of 10 µL of the premixed WST-1 cell proliferation reagent (Clontech) was added to each well. After mixing gently for one min on an orbital shaker, the cells were incubated for an additional 3 h at 37 °C. To ensure a homogeneous distribution of color, it is important to mix gently on an orbital shaker for one min. The absorbance of each well was measured using a microplate reader (Synergy HT, BioTek, Winooski, VT, USA) at a wavelength of 430 nm. […] For calculating the IC50 values, a linear proliferative inhibition was made based on at least five dosages for each compound.

DU145 cells = assay: WST-1 cell proliferation assay, DU145; details: for IC50: Homo sapiens, DU-145, 72 h, WST-1, three days of exposure, mean ± SD, n = 3; for IC50 (Silibinin)/IC50(Derivative) DU145: fold potency relative to silibinin
Protocol: as §1, §2, §3

LNCaP cells = assay: WST-1 cell proliferation assay, LNCaP; details: for IC50: Homo sapiens, LNCaP, 72 h, WST-1, three days of exposure, mean ± SD, n = 3; for IC50 (Silibinin)/IC50(Derivative) LNCaP: fold potency relative to silibinin
Protocol: as §1, §2, §3

Structure (SMILES) | IC50 (PC-3 cells) | IC50 (Silibinin)/IC50(Derivative) PC-3 (PC-3 cells) | IC50 (DU145 cells) | IC50 (Silibinin)/IC50(Derivative) DU145 (DU145 cells) | IC50 (LNCaP cells) | IC50 (Silibinin)/IC50(Derivative) LNCaP (LNCaP cells)
CCN(CC)CCCCOc1c(-c2ccc3c(c2)OC(c2ccc(OC)c(OC)c2)C(CO)O3)oc2cc(OC)cc(OC)c2c1=O (stereo not drawn) [Compound 24] | 5.76 ± 1.36 µM | 11 | 8.18 ± 0.42 µM | 8 | 5.19 ± 2.08 µM | 13
CCN(CC)CCCCCOc1c(-c2ccc3c(c2)OC(c2ccc(OC)c(OC)c2)C(CO)O3)oc2cc(OC)cc(OC)c2c1=O (stereo not drawn) [Compound 25] | 6.41 ± 0.4 µM | 11 | 6.64 ± 0.54 µM | 14 | 6.33 ± 0.34 µM | 7
COc1cc(OC)c2c(=O)c(OCCCN3CCCC3)c(-c3ccc4c(c3)OC(c3ccc(OC)c(OC)c3)C(CO)O4)oc2c1 (stereo not drawn) [Compound 32] | 2.86 ± 0.79 µM | 25 | 14.1 ± 2.79 µM | 7 | 5.89 ± 0.3 µM | 7
COc1cc(OC)c2c(=O)c(OCCCCCN3CCCC3)c(-c3ccc4c(c3)OC(c3ccc(OC)c(OC)c3)C(CO)O4)oc2c1 (stereo not drawn) [Compound 34] | 2.95 ± 0.76 µM | 25 | 5.9 ± 1.3 µM | 16 | 3.92 ± 1.67 µM | 11
COc1cc(OC)c2c(=O)c(OCCCN3CCNCC3)c(-c3ccc4c(c3)OC(c3ccc(OC)c(OC)c3)C(CO)O4)oc2c1 (stereo not drawn) [Compound 41] | 9.98 ± 4.94 µM | 7 | > 50 µM | <2 | 11.4 ± 5.91 µM | 4
COc1ccc(C2Oc3cc(-c4oc5cc(OCCCN6CCCC6)cc(OC)c5c(=O)c4OC)ccc3OC2CO)cc1OC (stereo not drawn) [Compound 12] | 25.1 ± 1 µM | 3 | 19.6 ± 0.47 µM | 5 | 11 ± 0.99 µM | 4
COc1cc(OC)c2c(=O)c(OCCCN(C)C)c(-c3ccc4c(c3)OC(c3ccc(OC)c(OC)c3)C(CO)O4)oc2c1 (stereo not drawn) [Compound 20, 3-O-(N,N-Dimethylamino)propyl-5,7,20-O-trimethyl-2,3-dehydrosilybin] | 9.09 ± 1.48 µM | 8 | 32.7 ± 5.32 µM | 3 | 20.7 ± 5.34 µM | 2
CCN(CC)CCCOc1c(-c2ccc3c(c2)OC(c2ccc(OC)c(OC)c2)C(CO)O3)oc2cc(OC)cc(OC)c2c1=O (stereo not drawn) [Compound 23] | 5.16 ± 0.94 µM | 14 | 9.21 ± 0.37 µM | 10 | 3.09 ± 0.15 µM | 14
CC(=O)O[C@@]12CO[C@@H]1C[C@H](O)[C@@]1(C)C(=O)[C@H](O)C3=C(C)[C@@H](OC(=O)[C@H](O)[C@@H](NC(=O)OC(C)(C)C)c4ccccc4)C[C@@](O)([C@@H](OC(=O)c4ccccc4)[C@H]21)C3(C)C [Docetaxel, docetaxel, reference compound] | 0.0019 ± 0.0006 µM |  | 0.0012 ± 0.0003 µM |  | 0.0002 ± 0.0001 µM | 
COc1cc(OC)c2c(=O)c(OCCCCCBr)c(-c3ccc4c(c3)OC(c3ccc(OC)c(OC)c3)C(CO)O4)oc2c1 (stereo not drawn) [Compound 19] | 5.76 ± 1.36 µM | 13 | 8.13 ± 0.42 µM | 11 | 5.19 ± 2.08 µM | 8
CCCCN(CCCC)CCCCOc1c(-c2ccc3c(c2)OC(c2ccc(OC)c(OC)c2)C(CO)O3)oc2cc(OC)cc(OC)c2c1=O (stereo not drawn) [Compound 30] | 3.77 ± 0.41 µM | 19 | 3.07 ± 0.51 µM | 30 | 3.84 ± 0.51 µM | 11
CCCN(CCC)CCCOc1c(-c2ccc3c(c2)OC(c2ccc(OC)c(OC)c2)C(CO)O3)oc2cc(OC)cc(OC)c2c1=O (stereo not drawn) [Compound 26] | 2.03 ± 0.69 µM | 36 | 8.39 ± 1.38 µM | 11 | 3.89 ± 0.54 µM | 11
